# ChEMBL document CHEMBL1201862, “PubChem BioAssay data set” (2004)
# Calls of active or inactive are those of the source.
# Legend:
# [1] = NIH-3T3 fibroblast cytotoxicity, dose response, cytotoxicity control, cell-based, fluorescence, Alamar Blue, secondary assay (AID 2327); type: functional;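 further: NIH-3T3 mouse fibroblasts cultured with fluconazole at 8 µg/mL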
# [2] = fluconazole-exposed Candida albicans growth modulators – fluorescence, retest, confirmation (AID 2467); type: functional, cell-based
# [3] = biological target: T1, Serine/threonine-protein phosphatase (Candida dubliniensis (strain CD36 / CBS 7987 / NCPF 3949 / NRRLY-17841) (Yeast), UniProt B9W6M3); test: blockers of CaCl2-induced CDRE-lacZ signaling – S. cerevisiae, luminescence, secondary, dose response (AID 2388); type: functional, cell-based;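 further: yeast reporter cells carrying a calcineurin-responsive lacZ construct stimulated with calcium chloride; luminescent beta-galactosidase reporter signal in whole cells rather than isolated phosphatase activity; potency for inhibition where a drop in reporter signal means calcineurin blockade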
# T1 sequence (B9W6M3 whole entry): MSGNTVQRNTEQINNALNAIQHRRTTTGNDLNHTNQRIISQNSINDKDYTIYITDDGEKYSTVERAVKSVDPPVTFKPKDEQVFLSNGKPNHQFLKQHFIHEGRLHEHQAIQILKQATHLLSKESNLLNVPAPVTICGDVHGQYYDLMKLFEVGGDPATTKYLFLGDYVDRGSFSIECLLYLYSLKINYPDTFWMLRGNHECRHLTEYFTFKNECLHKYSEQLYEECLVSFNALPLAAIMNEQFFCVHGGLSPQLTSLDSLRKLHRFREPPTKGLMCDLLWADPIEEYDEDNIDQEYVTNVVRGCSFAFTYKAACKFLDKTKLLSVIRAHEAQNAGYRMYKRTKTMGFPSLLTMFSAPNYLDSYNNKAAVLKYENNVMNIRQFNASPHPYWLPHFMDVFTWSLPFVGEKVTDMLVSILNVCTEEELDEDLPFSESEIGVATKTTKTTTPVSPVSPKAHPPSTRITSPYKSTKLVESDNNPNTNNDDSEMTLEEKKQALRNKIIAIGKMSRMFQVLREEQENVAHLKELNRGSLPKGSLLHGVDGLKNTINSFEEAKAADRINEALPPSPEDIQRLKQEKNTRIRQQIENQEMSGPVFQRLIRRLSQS
# [4] = biological target: ATP-dependent molecular chaperone HSP82 (Candida albicans (strain WO-1) (Yeast), UniProt C4YTQ8); test: steroid-induced GRE reporter decrease in yeast – S. cerevisiae, luminescence, Hsp90 inhibitor project, dose response (AID 2400); type: functional, cell-based;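 further: beta-galactosidase luminescence from glucocorticoid response element reporter as proxy for Hsp90 function; inhibitor potency where signal loss means Hsp90 inhibition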
# ATP-dependent molecular chaperone HSP82, sequence (C4YTQ8 whole entry): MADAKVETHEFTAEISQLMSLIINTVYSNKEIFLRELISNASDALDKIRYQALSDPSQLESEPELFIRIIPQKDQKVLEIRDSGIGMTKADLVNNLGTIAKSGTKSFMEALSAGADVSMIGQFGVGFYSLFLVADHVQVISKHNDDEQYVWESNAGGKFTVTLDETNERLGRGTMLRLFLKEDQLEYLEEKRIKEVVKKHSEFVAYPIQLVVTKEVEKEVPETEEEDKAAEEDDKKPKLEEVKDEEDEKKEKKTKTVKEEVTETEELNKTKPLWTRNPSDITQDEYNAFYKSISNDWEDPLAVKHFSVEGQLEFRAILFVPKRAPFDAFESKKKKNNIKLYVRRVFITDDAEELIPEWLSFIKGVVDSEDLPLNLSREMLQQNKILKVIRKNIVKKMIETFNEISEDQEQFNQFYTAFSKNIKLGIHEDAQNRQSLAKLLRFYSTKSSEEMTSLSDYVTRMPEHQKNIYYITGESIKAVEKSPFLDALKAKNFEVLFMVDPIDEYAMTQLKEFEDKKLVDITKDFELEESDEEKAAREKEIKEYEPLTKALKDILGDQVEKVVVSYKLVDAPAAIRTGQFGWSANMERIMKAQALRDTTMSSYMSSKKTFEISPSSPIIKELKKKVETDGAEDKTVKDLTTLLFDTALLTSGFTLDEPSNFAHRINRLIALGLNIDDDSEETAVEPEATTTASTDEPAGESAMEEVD
# Tumor necrosis factor = Tumor necrosis factor (Homo sapiens, UniProt P01375); test: analog potency on TNFa NF-kB signaling – cell-based, revised, SAR follow-up (AID 2337); type: functional
# Tumor necrosis factor, sequence (P01375 whole entry, the tested form may be a part): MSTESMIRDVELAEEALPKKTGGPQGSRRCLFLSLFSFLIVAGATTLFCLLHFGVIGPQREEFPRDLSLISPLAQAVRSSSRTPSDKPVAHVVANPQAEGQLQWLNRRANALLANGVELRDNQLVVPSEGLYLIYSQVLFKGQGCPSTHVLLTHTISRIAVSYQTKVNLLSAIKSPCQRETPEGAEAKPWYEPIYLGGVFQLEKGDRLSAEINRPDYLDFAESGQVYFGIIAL
# [5] = biological target: T2, Nucleotide-binding oligomerization domain-containing protein 1 (Homo sapiens, UniProt Q9Y239); test: blockers of NOD1 pathway activity – revised, SAR follow-up (AID 2333); type: functional
# T2 sequence (Q9Y239 whole entry): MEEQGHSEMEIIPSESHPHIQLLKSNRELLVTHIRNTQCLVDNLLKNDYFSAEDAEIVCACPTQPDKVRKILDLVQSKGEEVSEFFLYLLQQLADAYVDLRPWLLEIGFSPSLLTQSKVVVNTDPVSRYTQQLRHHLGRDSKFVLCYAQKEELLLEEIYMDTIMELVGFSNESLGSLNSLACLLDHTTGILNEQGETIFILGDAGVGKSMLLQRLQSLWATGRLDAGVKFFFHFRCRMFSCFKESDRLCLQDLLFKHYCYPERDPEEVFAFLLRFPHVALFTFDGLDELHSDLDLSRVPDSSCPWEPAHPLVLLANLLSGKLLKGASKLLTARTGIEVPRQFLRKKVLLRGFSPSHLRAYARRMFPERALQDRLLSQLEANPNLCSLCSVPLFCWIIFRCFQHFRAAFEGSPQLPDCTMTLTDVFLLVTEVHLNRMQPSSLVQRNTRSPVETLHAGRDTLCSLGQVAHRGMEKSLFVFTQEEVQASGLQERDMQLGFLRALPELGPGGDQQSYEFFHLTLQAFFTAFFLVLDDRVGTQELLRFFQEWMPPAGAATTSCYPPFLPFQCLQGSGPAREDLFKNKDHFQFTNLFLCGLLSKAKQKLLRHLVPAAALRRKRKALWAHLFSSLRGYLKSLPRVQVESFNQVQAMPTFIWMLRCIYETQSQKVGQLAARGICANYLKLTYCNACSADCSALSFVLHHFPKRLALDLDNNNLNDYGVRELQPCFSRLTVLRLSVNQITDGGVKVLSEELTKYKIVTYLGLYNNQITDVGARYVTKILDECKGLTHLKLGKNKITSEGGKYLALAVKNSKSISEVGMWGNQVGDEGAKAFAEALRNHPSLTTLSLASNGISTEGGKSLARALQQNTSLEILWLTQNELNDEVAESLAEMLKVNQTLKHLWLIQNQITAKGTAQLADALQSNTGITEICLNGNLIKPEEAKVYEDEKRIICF
# HEK293 = test: cells; settings: Homo sapiens;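 further: cells exposed to compound for 14 hours overnight before viability readout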
# [6] = biological target: Heat shock protein HSP 90-alpha (Homo sapiens, UniProt P07900); type: functional, organism-based
# Vero [7] = test: cells; type: functional, cell-based; settings: Chlorocebus sabaeus
# Vero [8] = test: cells; type: functional; settings: Chlorocebus sabaeus
# [9] = reduction of Shn3 3'UTR-driven luciferase in osteoblasts – cell-based, Clone20 osteoblasts, firefly luciferase, cherry-picked, dose response (AID 624132); type: functional;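 further: firefly luciferase luminescence from reporter carrying the Shn3 3'UTR in osteoblasts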
# [10] = loss of viability in HepG2 cells – cell-based, CellTiter-Glo, cherry-picked, cytotoxicity control for Shn3 inhibitor project, dose response (AID 624134); type: functional
# [11] = non-specific 3'UTR reporter inhibition in Clone20-Shn3RL – cell-based, Renilla luciferase, cherry-picked, counter-screen for Shn3 inhibitor project, dose response (AID 624133); type: functional
# Fatty acid synthase [12] = biological target: T3, Fatty acid synthase (Homo sapiens, UniProt P49327); test: inhibition of human FAS-TE enzyme activity – biochemical, endpoint fluorescence intensity, uHTS hits, dose response (AID 624327); type: functional;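 further: fluorescence from hydrolysis of an O-methyl fluorescein acyl ester substrate by the enzyme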
# T3 sequence (P49327 whole entry): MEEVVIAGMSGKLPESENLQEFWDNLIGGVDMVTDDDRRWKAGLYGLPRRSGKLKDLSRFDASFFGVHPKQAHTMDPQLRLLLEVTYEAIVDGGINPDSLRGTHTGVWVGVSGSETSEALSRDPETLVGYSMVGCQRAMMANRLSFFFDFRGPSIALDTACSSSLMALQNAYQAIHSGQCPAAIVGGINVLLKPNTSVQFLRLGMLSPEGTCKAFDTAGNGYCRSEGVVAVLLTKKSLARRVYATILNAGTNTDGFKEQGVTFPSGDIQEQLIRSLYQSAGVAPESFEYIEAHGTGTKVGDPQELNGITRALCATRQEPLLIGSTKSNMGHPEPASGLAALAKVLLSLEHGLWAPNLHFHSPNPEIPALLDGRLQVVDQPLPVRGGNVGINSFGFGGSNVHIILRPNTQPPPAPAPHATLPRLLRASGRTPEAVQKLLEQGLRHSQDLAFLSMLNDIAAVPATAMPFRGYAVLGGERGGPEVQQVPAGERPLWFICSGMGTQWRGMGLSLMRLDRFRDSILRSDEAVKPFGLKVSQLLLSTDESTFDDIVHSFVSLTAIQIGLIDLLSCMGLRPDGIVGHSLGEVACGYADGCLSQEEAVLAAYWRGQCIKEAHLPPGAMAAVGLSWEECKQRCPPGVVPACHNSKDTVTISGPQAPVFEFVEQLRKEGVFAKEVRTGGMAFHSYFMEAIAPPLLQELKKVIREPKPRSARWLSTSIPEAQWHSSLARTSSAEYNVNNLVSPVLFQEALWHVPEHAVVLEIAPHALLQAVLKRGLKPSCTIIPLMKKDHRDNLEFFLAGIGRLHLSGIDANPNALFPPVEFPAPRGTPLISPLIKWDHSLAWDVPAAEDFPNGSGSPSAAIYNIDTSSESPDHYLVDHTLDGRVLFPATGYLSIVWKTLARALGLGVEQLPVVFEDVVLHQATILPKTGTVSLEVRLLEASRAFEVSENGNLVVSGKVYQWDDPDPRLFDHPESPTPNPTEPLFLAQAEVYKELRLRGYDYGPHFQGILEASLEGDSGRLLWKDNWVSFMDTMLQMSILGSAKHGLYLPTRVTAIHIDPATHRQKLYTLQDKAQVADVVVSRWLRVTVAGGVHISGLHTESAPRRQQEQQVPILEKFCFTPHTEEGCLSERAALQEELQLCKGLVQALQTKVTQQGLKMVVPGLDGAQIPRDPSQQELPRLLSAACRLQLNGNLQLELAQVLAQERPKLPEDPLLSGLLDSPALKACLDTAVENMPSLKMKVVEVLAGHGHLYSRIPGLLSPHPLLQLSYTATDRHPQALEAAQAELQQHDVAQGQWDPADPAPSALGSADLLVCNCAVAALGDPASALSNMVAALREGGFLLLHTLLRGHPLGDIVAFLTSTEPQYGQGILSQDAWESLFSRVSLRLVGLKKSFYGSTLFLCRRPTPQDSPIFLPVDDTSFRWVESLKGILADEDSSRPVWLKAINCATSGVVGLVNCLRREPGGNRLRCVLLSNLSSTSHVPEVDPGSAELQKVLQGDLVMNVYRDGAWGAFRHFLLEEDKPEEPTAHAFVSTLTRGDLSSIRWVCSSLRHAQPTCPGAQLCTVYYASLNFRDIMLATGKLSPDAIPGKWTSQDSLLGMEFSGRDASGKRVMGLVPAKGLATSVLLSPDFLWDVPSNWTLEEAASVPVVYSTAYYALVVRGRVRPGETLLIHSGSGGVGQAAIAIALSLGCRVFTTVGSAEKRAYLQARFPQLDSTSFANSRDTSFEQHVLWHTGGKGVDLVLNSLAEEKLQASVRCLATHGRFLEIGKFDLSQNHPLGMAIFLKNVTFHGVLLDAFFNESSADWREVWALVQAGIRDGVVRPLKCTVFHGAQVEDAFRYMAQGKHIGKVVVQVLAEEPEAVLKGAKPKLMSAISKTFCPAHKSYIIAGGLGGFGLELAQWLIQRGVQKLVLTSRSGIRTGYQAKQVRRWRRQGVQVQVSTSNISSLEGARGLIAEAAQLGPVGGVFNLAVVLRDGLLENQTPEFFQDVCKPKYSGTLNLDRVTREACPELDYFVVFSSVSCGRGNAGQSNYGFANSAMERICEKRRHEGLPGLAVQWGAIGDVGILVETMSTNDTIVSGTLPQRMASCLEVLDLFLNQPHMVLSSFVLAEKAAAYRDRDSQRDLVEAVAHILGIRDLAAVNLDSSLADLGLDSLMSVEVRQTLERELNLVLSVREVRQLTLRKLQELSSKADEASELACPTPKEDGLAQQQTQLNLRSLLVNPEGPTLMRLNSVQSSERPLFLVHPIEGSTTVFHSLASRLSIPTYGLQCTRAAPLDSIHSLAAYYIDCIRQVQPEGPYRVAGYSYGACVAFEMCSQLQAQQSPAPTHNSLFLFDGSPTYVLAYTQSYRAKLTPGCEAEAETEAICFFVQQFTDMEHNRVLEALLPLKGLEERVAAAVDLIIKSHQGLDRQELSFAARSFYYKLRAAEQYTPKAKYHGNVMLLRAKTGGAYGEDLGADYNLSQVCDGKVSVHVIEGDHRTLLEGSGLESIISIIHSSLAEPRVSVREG
# Fatty acid synthase [13] = biological target: T3, Fatty acid synthase; test: inhibition of human FAS-TE enzyme activity – biochemical, kinetic fluorescence intensity, dose response (AID 624326); type: functional;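 further: rate of fluorescence rise from hydrolysis of a fluorogenic O-methyl fluorescein ester substrate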
# [14] = biological target: T4, Low molecular weight phosphotyrosine protein phosphatase (Homo sapiens, UniProt P24666); type: functional; settings: read-out: IC50_Mean;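 further: Dose-response confirmation assay measuring inhibition of LMPTP enzyme activity by fluorescence intensity read-out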
# T4 sequence (P24666 whole entry): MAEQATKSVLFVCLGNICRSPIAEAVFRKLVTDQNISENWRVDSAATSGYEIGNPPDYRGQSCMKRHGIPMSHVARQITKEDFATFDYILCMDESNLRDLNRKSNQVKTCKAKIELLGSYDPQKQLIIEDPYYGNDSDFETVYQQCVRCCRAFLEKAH
# Vero [15] = test: viability of Vero cells under compound – cytotoxicity control for flavivirus capping enzyme inhibitors (AID 588742); type: functional; settings: Chlorocebus sabaeus
smiles,measurement,setting,value
Cc1cc(=O)oc2cc(Oc3ccc([N+](=O)[O-])cc3[N+](=O)[O-])ccc12,EC50,[1],35.9 µM (inconclusive)
same,EC50,[2],1.3 µM (active)
same,EC50,[3],> 180 µM (inactive)
same,EC50,[4],> 160 µM (inactive)
O=C(CSc1nc2scc(-c3ccccc3)c2c(=O)[nH]1)Nc1ccc(C(F)(F)F)cc1,IC50,Tumor necrosis factor,0.752 µM (active)
same,IC50,[5],1.65 µM (active)
same,IC50,HEK293,10.3 µM (active)
O=C1C(F)=CC(COC(c2ccccc2)(c2ccccc2)c2ccccc2)OC1n1cc(F)c(=O)[nH]c1=O (configuration not stated),AC50,[6],2.6 µM (active)
same,IC50,Vero [7],12.1 µM (active)
same,CC50,Vero [8],6.83 µM (active)
same,AC50,[9],0.428 µM (active)
same,AC50,[10],9.11 µM (active)
same,AC50,[11],2.42 µM (active)
same,IC50,Fatty acid synthase [12],7.69 µM (active)
same,IC50,Fatty acid synthase [13],8.13 µM (active)
CN(C)c1ccc(C(=O)C=Cc2ccc([N+](=O)[O-])cc2)cc1,IC50,[14],80 µM (inactive)
COc1ccc(CNc2nc(NCc3ccc(OC)cc3)c3[nH]cnc3n2)cc1,CC50,Vero [15],> 40 µM (active)
